Source: BigSolDB 2.1

NC(=O)c1ncn([C@@H]2O[C@H](CO)[C@@H](O)[C@H]2O)n1
solubility (mole fraction)
Conditions | 278.15 K | 283.15 K | 288.15 K | 293.15 K | 298.15 K | 303.15 K | 308.15 K | 313.15 K | 318.15 K
in 1,4-dioxane | – | 7.06e-05 | 0.000101 | 0.000145 | 0.000203 | 0.000282 | 0.000387 | 0.000527 | 0.000712
in acetonitrile | 8.6e-06 | 1.33e-05 | 1.94e-05 | 2.77e-05 | 3.96e-05 | 5.64e-05 | 7.88e-05 | 0.00011 | 0.00015
in methanol | 0.000379 | 0.000517 | 0.000711 | 0.000952 | 0.00128 | 0.00171 | 0.00223 | 0.00293 | 0.00379
in n-propanol | 5.99e-05 | 8.69e-05 | 0.000122 | 0.000171 | 0.000242 | 0.000332 | 0.000455 | 0.000617 | 0.000829
in water | 0.0058 | 0.00775 | 0.0104 | 0.0135 | 0.0174 | 0.0219 | 0.0273 | 0.0335 | 0.0405
